Results taken from ChEMBL document CHEMBL3885881, “DrugMatrix”.

Species: Rattus norvegicus
Test: DrugMatrix - Regimen: Daily Repeat
Type: toxicity, organism-based, Sprague-Dawley
Design: regimen Daily Repeat, gender Male, age 6-8 weeks
Details: in vivo, po, route oral GAVAGE, vehicle 100 % WATER; for ABSOLUTE BASOPHIL / ABSOLUTE EOSINOPHIL / ABSOLUTE LYMPHOCYTE / ABSOLUTE MONOCYTE / ABSOLUTE SEGMENTED NEUTROPHIL / BASOPHIL / EOSINOPHIL / ERYTHROCYTE COUNT / HEMATOCRIT / HEMOGLOBIN / LEUKOCYTE COUNT / LYMPHOCYTE / MEAN CORPUSCULAR HEMOGLOBIN / MEAN CORPUSCULAR HEMOGLOBIN CONCENTRATION / MEAN CORPUSCULAR VOLUME / MONOCYTE / NEUTROPHIL / NUCLEATED RED BLOOD CELLS / PLATELET COUNT: tissue Blood; for ALANINE AMINOTRANSFERASE / ALBUMIN / ALKALINE PHOSPHATASE / ASPARTATE AMINOTRANSFERASE / BLOOD UREA NITROGEN / CARBON DIOXIDE / CHLORIDE / CHOLESTEROL / CREATINE PHOSPHOKINASE / CREATININE / GLUCOSE / LACTATE DEHYDROGENASE / LIPASE / PHOSPHORUS / POTASSIUM / SODIUM / TOTAL BILIRUBIN / TOTAL PROTEIN / URIC ACID: tissue Plasma
[1] = 500 mg/kg, 120 h, dose level Low, time 5 day
[2] = 2000 mg/kg, 72 h, dose level High, time 3 day
[3] = 2000 mg/kg, 120 h, dose level High, time 5 day

Question: With `NCCCCCC(=O)O` [AMINOCAPROIC ACID] as the compound, how does the “ABSOLUTE BASOPHIL” value [1] read?
Answer: 0 CELLS/uL

Question: What about the “ABSOLUTE EOSINOPHIL” value [1] of the same compound?
Answer: 0 CELLS/uL

Question: What about the “ABSOLUTE LYMPHOCYTE” value [1] of the same compound?
Answer: 13712 CELLS/uL

Question: And the “ABSOLUTE MONOCYTE” value [1]?
Answer: 316 CELLS/uL

Question: What about the “ABSOLUTE SEGMENTED NEUTROPHIL” value [1] of the same compound?
Answer: 872 CELLS/uL

Question: What about the BASOPHIL [1] of the same compound?
Answer: 0%

Question: And the EOSINOPHIL [1]?
Answer: 0%

Question: And the “ERYTHROCYTE COUNT” value [1]?
Answer: 5.42 x10E6/uL

Question: And the HEMATOCRIT [1]?
Answer: 34.37%

Question: What about the HEMOGLOBIN [1] of the same compound?
Answer: 13.87 G/DL

Question: And the “LEUKOCYTE COUNT” value [1]?
Answer: 14.9 x10E3/uL

Question: And the LYMPHOCYTE [1]?
Answer: 92.33%

Question: And the “MEAN CORPUSCULAR HEMOGLOBIN” value [1]?
Answer: 25.67 pg

Question: What about the “MEAN CORPUSCULAR HEMOGLOBIN CONCENTRATION” value [1] of the same compound?
Answer: 40.37 G/DL

Question: What about the “MEAN CORPUSCULAR VOLUME” value [1] of the same compound?
Answer: 63.53 fL

Question: And the MONOCYTE [1]?
Answer: 2%

Question: And the NEUTROPHIL [1]?
Answer: 5.67%

Question: What about the “NUCLEATED RED BLOOD CELLS” value [1] of the same compound?
Answer: 0 /100WBC

Question: And the “PLATELET COUNT” value [1]?
Answer: 1257.67 x10E3/uL

Question: And the “ALANINE AMINOTRANSFERASE” value [1]?
Answer: 51.33 u/L

Question: What about the ALBUMIN [1] of the same compound?
Answer: 4.4 G/DL

Question: What about the “ALKALINE PHOSPHATASE” value [1] of the same compound?
Answer: 417.33 u/L

Question: What about the “ASPARTATE AMINOTRANSFERASE” value [1] of the same compound?
Answer: 75.67 u/L

Question: What about the “BLOOD UREA NITROGEN” value [1] of the same compound?
Answer: 15.33 mg/dL

Question: What about the “CARBON DIOXIDE” value [1] of the same compound?
Answer: 26.67 mmol/L

Question: And the CHLORIDE [1]?
Answer: 101.67 MEQ/L

Question: And the CHOLESTEROL [1]?
Answer: 72.67 mg/dL

Question: And the “CREATINE PHOSPHOKINASE” value [1]?
Answer: 253.67 u/L

Question: What about the CREATININE [1] of the same compound?
Answer: 0.15 mg/dL

Question: What about the GLUCOSE [1] of the same compound?
Answer: 153.33 mg/dL

Question: What about the “LACTATE DEHYDROGENASE” value [1] of the same compound?
Answer: 102.33 u/L

Question: What about the LIPASE [1] of the same compound?
Answer: 9 u/L

Question: What about the PHOSPHORUS [1] of the same compound?
Answer: 11.07 mg/dL

Question: And the POTASSIUM [1]?
Answer: 6.75 MEQ/L

Question: What about the SODIUM [1] of the same compound?
Answer: 143.73 MEQ/L

Question: And the “TOTAL BILIRUBIN” value [1]?
Answer: 0.2 mg/dL

Question: What about the “TOTAL PROTEIN” value [1] of the same compound?
Answer: 6.1 G/DL

Question: What about the “URIC ACID” value [1] of the same compound?
Answer: 1.57 mg/dL

Question: And the “ABSOLUTE BASOPHIL” value [2]?
Answer: 0 CELLS/uL

Question: What about the “ABSOLUTE EOSINOPHIL” value [2] of the same compound?
Answer: 99.33 CELLS/uL

Question: What about the “ABSOLUTE LYMPHOCYTE” value [2] of the same compound?
Answer: 12832.33 CELLS/uL

Question: What about the “ABSOLUTE MONOCYTE” value [2] of the same compound?
Answer: 0 CELLS/uL

Question: And the “ABSOLUTE SEGMENTED NEUTROPHIL” value [2]?
Answer: 1535 CELLS/uL

Question: What about the BASOPHIL [2] of the same compound?
Answer: 0%

Question: And the EOSINOPHIL [2]?
Answer: 0.67%

Question: What about the “ERYTHROCYTE COUNT” value [2] of the same compound?
Answer: 5.61 x10E6/uL

Question: What about the HEMATOCRIT [2] of the same compound?
Answer: 36.13%

Question: What about the HEMOGLOBIN [2] of the same compound?
Answer: 14.13 G/DL

Question: And the “LEUKOCYTE COUNT” value [2]?
Answer: 14.47 x10E3/uL

Question: What about the LYMPHOCYTE [2] of the same compound?
Answer: 88.67%

Question: And the “MEAN CORPUSCULAR HEMOGLOBIN” value [2]?
Answer: 25.17 pg

Question: What about the “MEAN CORPUSCULAR HEMOGLOBIN CONCENTRATION” value [2] of the same compound?
Answer: 39.1 G/DL

Question: What about the “MEAN CORPUSCULAR VOLUME” value [2] of the same compound?
Answer: 64.4 fL

Question: And the MONOCYTE [2]?
Answer: 0%

Question: And the NEUTROPHIL [2]?
Answer: 10.67%

Question: What about the “NUCLEATED RED BLOOD CELLS” value [2] of the same compound?
Answer: 0.33 /100WBC

Question: What about the “PLATELET COUNT” value [2] of the same compound?
Answer: 1333.33 x10E3/uL

Question: What about the “ALANINE AMINOTRANSFERASE” value [2] of the same compound?
Answer: 41.67 u/L

Question: What about the ALBUMIN [2] of the same compound?
Answer: 4.27 G/DL

Question: And the “ALKALINE PHOSPHATASE” value [2]?
Answer: 386.67 u/L

Question: What about the “ASPARTATE AMINOTRANSFERASE” value [2] of the same compound?
Answer: 89 u/L

Question: What about the “BLOOD UREA NITROGEN” value [2] of the same compound?
Answer: 18 mg/dL

Question: What about the “CARBON DIOXIDE” value [2] of the same compound?
Answer: 22.67 mmol/L

Question: What about the CHLORIDE [2] of the same compound?
Answer: 103 MEQ/L

Question: And the CHOLESTEROL [2]?
Answer: 61.33 mg/dL

Question: And the “CREATINE PHOSPHOKINASE” value [2]?
Answer: 502 u/L

Question: What about the CREATININE [2] of the same compound?
Answer: 0.2 mg/dL

Question: And the GLUCOSE [2]?
Answer: 180 mg/dL

Question: And the “LACTATE DEHYDROGENASE” value [2]?
Answer: 295 u/L

Question: What about the LIPASE [2] of the same compound?
Answer: 11 u/L

Question: And the PHOSPHORUS [2]?
Answer: 11.37 mg/dL

Question: What about the POTASSIUM [2] of the same compound?
Answer: 5.97 MEQ/L

Question: What about the SODIUM [2] of the same compound?
Answer: 144.2 MEQ/L

Question: What about the “TOTAL BILIRUBIN” value [2] of the same compound?
Answer: 0.27 mg/dL

Question: What about the “TOTAL PROTEIN” value [2] of the same compound?
Answer: 5.77 G/DL

Question: And the “URIC ACID” value [2]?
Answer: 1.03 mg/dL

Question: And the “ABSOLUTE BASOPHIL” value [3]?
Answer: 0 CELLS/uL

Question: What about the “ABSOLUTE EOSINOPHIL” value [3] of the same compound?
Answer: 109 CELLS/uL

Question: And the “ABSOLUTE LYMPHOCYTE” value [3]?
Answer: 13720 CELLS/uL

Question: And the “ABSOLUTE MONOCYTE” value [3]?
Answer: 222 CELLS/uL

Question: What about the “ABSOLUTE SEGMENTED NEUTROPHIL” value [3] of the same compound?
Answer: 1882.33 CELLS/uL

Question: And the BASOPHIL [3]?
Answer: 0%

Question: What about the EOSINOPHIL [3] of the same compound?
Answer: 0.67%

Question: And the “ERYTHROCYTE COUNT” value [3]?
Answer: 5.57 x10E6/uL

Question: And the HEMATOCRIT [3]?
Answer: 34.6%

Question: What about the HEMOGLOBIN [3] of the same compound?
Answer: 13.8 G/DL

Question: What about the “LEUKOCYTE COUNT” value [3] of the same compound?
Answer: 15.93 x10E3/uL

Question: And the LYMPHOCYTE [3]?
Answer: 86.33%

Question: What about the “MEAN CORPUSCULAR HEMOGLOBIN” value [3] of the same compound?
Answer: 24.83 pg

Question: And the “MEAN CORPUSCULAR HEMOGLOBIN CONCENTRATION” value [3]?
Answer: 39.87 G/DL

Question: And the “MEAN CORPUSCULAR VOLUME” value [3]?
Answer: 62.2 fL

Question: And the MONOCYTE [3]?
Answer: 1.33%

Question: And the NEUTROPHIL [3]?
Answer: 11.67%

Question: What about the “NUCLEATED RED BLOOD CELLS” value [3] of the same compound?
Answer: 0 /100WBC

Question: What about the “PLATELET COUNT” value [3] of the same compound?
Answer: 1463.33 x10E3/uL

Question: And the “ALANINE AMINOTRANSFERASE” value [3]?
Answer: 41.67 u/L

Question: And the ALBUMIN [3]?
Answer: 4.27 G/DL

Question: What about the “ALKALINE PHOSPHATASE” value [3] of the same compound?
Answer: 291 u/L

Question: What about the “ASPARTATE AMINOTRANSFERASE” value [3] of the same compound?
Answer: 77 u/L

Question: And the “BLOOD UREA NITROGEN” value [3]?
Answer: 17.67 mg/dL

Question: What about the “CARBON DIOXIDE” value [3] of the same compound?
Answer: 25.33 mmol/L

Question: What about the CHLORIDE [3] of the same compound?
Answer: 101 MEQ/L

Question: What about the CHOLESTEROL [3] of the same compound?
Answer: 60.67 mg/dL

Question: And the “CREATINE PHOSPHOKINASE” value [3]?
Answer: 281 u/L

Question: What about the CREATININE [3] of the same compound?
Answer: 0.15 mg/dL

Question: And the GLUCOSE [3]?
Answer: 157.33 mg/dL

Question: And the “LACTATE DEHYDROGENASE” value [3]?
Answer: 298.67 u/L

Question: What about the LIPASE [3] of the same compound?
Answer: 9.33 u/L

Question: And the PHOSPHORUS [3]?
Answer: 10.73 mg/dL

Question: And the POTASSIUM [3]?
Answer: 6.02 MEQ/L

Question: And the SODIUM [3]?
Answer: 141.63 MEQ/L

Question: And the “TOTAL BILIRUBIN” value [3]?
Answer: 0.17 mg/dL

Question: What about the “TOTAL PROTEIN” value [3] of the same compound?
Answer: 6.07 G/DL

Question: And the “URIC ACID” value [3]?
Answer: 0.8 mg/dL
